{"source": "patent US20070112018A1", "about": "“Treatment of peripheral arterial occlusive disease” (priority 2005, published 2007)", "key": {"[1]": {"settings": "300 mg, 3 days, 2 years of follow-up; cited from earlier work"}, "C. pneumoniae [2]": {"tested_on": "C. pneumoniae", "assay": "Rabbit model of atherosclerosis accelerated by C. pneumoniae infection, cholesterol diet", "settings": "C. pneumoniae-infected rabbits; rifalazil 5 mg/kg or azithromycin 30 mg/kg PO daily 1 week then twice weekly 6 weeks; 19 weeks after beginning treatment", "description": "Thirty received three separate C. pneumoniae inoculations performed at 3-week intervals. Similarly, 15 control rabbits were intranasally inoculated with 1 mL of normal saline under the same conditions.\nNineteen weeks after beginning antibiotic treatment, the rabbits were euthanized. After euthanasia, hearts were examined histologically and by immunofluorescence. Animal serum samples were also examined for seropositivity to the infecting organism."}, "[3]": {"settings": "in vivo; cited from earlier work"}, "[4]": {"settings": "male, human, in vivo", "protocol": "In another study, three dose levels of rifalazil were administered for the treatment of non-gonococcal urethritis in 170 male patients. Doses used were in this study were single-doses of 2.5, 12.5 mg and 25 mg. Males were between 18-45 years of age with signs or symptoms of urethritis, including urethral discharge."}, "C. pneumoniae [5]": {"tested_on": "C. pneumoniae", "settings": "cited from earlier work"}}}
{"smiles": "CC[C@H]1OC(=O)[C@H](C)[C@@H](O[C@H]2C[C@@](C)(OC)[C@@H](O)[C@H](C)O2)[C@H](C)[C@@H](O[C@@H]2O[C@H](C)C[C@H](N(C)C)[C@H]2O)[C@](C)(O)C[C@@H](C)CN(C)[C@H](C)[C@@H](O)[C@]1(C)O", "note": "[azithromycin]", "values": [{"measurement": "morbidity or mortality in PAOD patients", "setting": "[1]", "value": "no significant reduction of morbidity or mortality"}, {"measurement": "Plaque Area Stenosis (%)", "setting": "C. pneumoniae [2]", "value": 30.2, "unit": "%"}, {"measurement": "t1/2", "setting": "[3]", "value": 65, "unit": "h"}, {"measurement": "incidence of AEs considered possibly related to study drug", "setting": "[4]", "value": 24, "unit": "%"}, {"measurement": "incidence of clinically significant laboratory abnormalities", "setting": "[4]", "value": 21, "unit": "%"}]}
{"smiles": "CN[C@H]1C(=O)N[C@@H]2Cc3ccc(cc3)Oc3cc4cc(c3O[C@@H]3O[C@H](C(=O)O)[C@@H](O)[C@H](O)[C@H]3NC(=O)CCCCCCCCC(C)C)Oc3ccc(cc3Cl)[C@@H](O)[C@@H]3NC(=O)[C@H](NC(=O)[C@@H]4NC(=O)[C@@H](NC2=O)c2cc(cc(O)c2Cl)Oc2cc1ccc2O)c1ccc(O)c(c1)-c1c(O[C@H]2O[C@H](CO)[C@@H](O)[C@H](O)[C@@H]2O)cc(O)cc1[C@@H](C(=O)NCCCN(C)C)NC3=O", "note": "[Dalbavancin]", "values": [{"measurement": "t1/2", "setting": "[3]", "value": "approximately 180 hours"}]}
{"smiles": "CC[C@H]1OC(=O)[C@H](C)[C@@H](O[C@H]2C[C@@](C)(OC)[C@@H](O)[C@H](C)O2)[C@H](C)[C@@H](O[C@@H]2O[C@H](C)C[C@H](N(C)C)[C@H]2O)[C@](C)(O)C[C@@H](C)/C(=N\\OCOCCOC)[C@H](C)[C@@H](O)[C@]1(C)O", "note": "[roxithromycin]", "values": [{"measurement": "prevention of progression of lower limb atherosclerosis", "setting": "C. pneumoniae [5]; daily for 28 days, C. pneumoniae seropositive men, almost 3 years", "value": "statistically significant benefit"}, {"measurement": "number of invasive revascularization procedures", "setting": "C. pneumoniae [5]; daily for 28 days", "value": "reduced the number of invasive revascularization procedures"}, {"measurement": "soft plaque components in carotid arteries", "setting": "C. pneumoniae [5]; over a 6-month period", "value": "statistically significant reduction of soft plaque components"}]}
